Results on 44 compounds are retold here after patent publication US9776965B2, “Pyrrolidin-2-one and piperidin-2-one derivatives as 11-beta hydroxysteroid dehydrogenase inhibitors” (Janssen Pharmaceutica N.V., priority 2004, dated 2017).

Assay [1] concerns the target T1, 11b-HSD1 (Mus musculus, UniProt P50172).
T1 construct: Fibroblasts were differentiated into adipocytes; endogenous in cells; host or cells: differentiated 3T3-L1 cells (ATCC-CL-173)
The experiment in a line: Cellular assay, 11b-HSD1 activity in differentiated 3T3-L1 cells. It counts as cell-based. The settings on record: 4 hour pre-incubation; for IC50: read-out: [C2] HSD1 cellular 3T3-L1 Score. How it is done: The effects on 11b-HSD1 activity was measured in differentiated 3T3-L1 cells and rat hepatocytes.
Mouse fibroblast 3T3-L1 cells (ATCC-CL-173) were seeded at a density of 16500 cells/ml in 12 well plates and grown for 7 days in DMEM medium (supplemented with 10% heat inactivated foetal calf serum, 2 mM glutamine and 25 mg gentamycin) at 37 C in a humidified 5% CO2 atmosphere. Medium was refreshed twice a week. Fibroblasts were differentiated into adipocytes at 37 C in a 5% CO2 humidified atmosphere in growth medium containing 2 μg/ml insulin, 55 μg/ml IBMX and 39.2 μg/ml dexamethasone.
Following a 4 hour pre-incubation with test compound, 0.5 μCi ^3H-cortisone or dehydrocorticosterone, was added to the cultures. One hour later, the medium was extracted on Extrelut^3-columns with 15 ml diethyl ether and the extract was analysed by HPLC as described above.
As for the enzymatic assays, the compounds to be tested were taken from a stock solution and tested at a final concentration ranging from […] to 3.10^−9M. From the thus obtained dose response curves, the pIC50 value was calculated and scored as follows; Score 1=pIC50 value<5, Score 2=pIC50 value in the range of 5 to 6, Score 3=pIC50 value>6. Some of the thus obtained results are summarized in the table below (in this table NT stands for Not Tested).

Assay [2] concerns the target 11b-HSD1 (Homo sapiens, UniProt P28845). The experiment in a line: Enzymatic assay, 11b-HSD1 dependent conversion of cortisone into cortisol (reductase activity). The assay is classed as biochemical. The conditions noted are these: recombinant protein, 2 μM cortisone, 45 min at 37 C; for IC50: read-out: [C1] HSD1-prot Reduct Score. As for the experimental part:
The effects of compounds on 11b-HSD1 dependent conversion of cortisone into cortisol (reductase activity) was studied in a reaction mixture containing 30 mM Tris-HCl buffer pH 7.2, 180 μM NADPH, 1 mM EDTA, 2 μM cortisone, 1 μl drug and/or solvent and 11 μg recombinant protein in a final volume of 100 μl.
All incubations were performed for 45 min at 37 C in a water bath. The reaction was stopped by adding 100 μl acetonitrile containing 20 μg corticosterone as internal standard. After centrifugation, the product formation was analysed in the supernatant by HPLC on a Hypersyl BDS-C18 column using 0.05 mM ammonium acetate/methanol (50/50) as solvent. In all of the aforementioned assays, the drugs to be tested were taken from a stock solution and tested at a final concentration ranging from […] to 3.10^−9M. From the thus obtained dose response curves, the pIC50 value was calculated and scored as follows; Score 1=pIC50 value<5, Score 2=pIC50 value in the range of 5 to 6, Score 3=pIC50 value>6. (in this table NT stands for Not Tested).

T1 sequence (P50172 whole entry): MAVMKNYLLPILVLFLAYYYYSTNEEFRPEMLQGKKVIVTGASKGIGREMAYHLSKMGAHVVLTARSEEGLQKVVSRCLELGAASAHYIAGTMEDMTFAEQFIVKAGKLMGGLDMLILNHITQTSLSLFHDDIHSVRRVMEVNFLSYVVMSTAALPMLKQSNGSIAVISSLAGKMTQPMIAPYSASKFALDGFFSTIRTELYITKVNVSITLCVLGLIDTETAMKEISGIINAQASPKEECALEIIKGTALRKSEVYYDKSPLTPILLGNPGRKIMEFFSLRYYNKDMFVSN
11b-HSD1 (Homo sapiens, UniProt P28845), sequence (P28845 whole entry): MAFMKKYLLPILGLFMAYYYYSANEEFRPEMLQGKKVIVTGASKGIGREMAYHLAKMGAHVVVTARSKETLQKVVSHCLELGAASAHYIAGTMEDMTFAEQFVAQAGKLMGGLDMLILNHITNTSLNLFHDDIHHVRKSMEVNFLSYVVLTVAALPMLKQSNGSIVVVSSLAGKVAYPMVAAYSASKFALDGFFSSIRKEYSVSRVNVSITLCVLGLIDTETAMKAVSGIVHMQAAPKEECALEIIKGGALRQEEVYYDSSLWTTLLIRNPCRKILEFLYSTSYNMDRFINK

For the compound `Cc1cccc(CC2CCN(Cc3ccccc3)C2=O)c1` (stereo not shown) [Compound 56], the IC50 is 1 to 10 µM at 11b-HSD1 [1] and more than 10 µM on 11b-HSD1 [2].
As to `O=C1C(Cc2ccc(F)cc2F)CCN1CCc1ccccc1` (stereo not shown) [Compound 108], the IC50 at 11b-HSD1 [1] and on 11b-HSD1 [2] was 1 to 10 µM in each case.
With `COc1ccc(CC[C@@H]2CCN([C@@H](C)c3ccccc3)C2=O)cc1OC` [Compound 125], the IC50 on 11b-HSD1 [1] and on 11b-HSD1 [2] was more than 10 µM throughout.
`O=C1C(Cc2ccc(F)cc2Cl)CCN1CCc1ccccc1` (stereo not shown) [Compound 85]: the IC50 at 11b-HSD1 [1] is more than 10 µM; at 11b-HSD1 [2] it was 1 to 10 µM.
Take `COc1cccc(CC2CCN(CCc3ccccc3)C2=O)c1` (stereo not shown) [Compound 24]: the IC50 at 11b-HSD1 [1] was more than 10 µM; on 11b-HSD1 [2], 1 to 10 µM.
For `CO[C@H](C[C@@H]1CCN([C@@H](C)c2ccccc2)C1=O)c1ccccc1` [Compound 156], the IC50 on 11b-HSD1 [1] and at 11b-HSD1 [2] was 1 to 10 µM throughout.
`Cc1ccccc1C[C@]1(C)CCN([C@@H](C)c2ccccc2)C1=O` [Compound 142]: the IC50 on 11b-HSD1 [1] was 1 to 10 µM; at 11b-HSD1 [2], more than 10 µM.
For `COc1ccccc1C[C@@H]1CCN([C@@H](C)c2ccccc2)C1=O` [Compound 8], in that order: 1 to 10 µM and 1 to 10 µM.
`COC[C@H](c1ccccc1)N1CC[C@H](Cc2c(Cl)cccc2Cl)C1=O` [Compound 98]: the IC50 on 11b-HSD1 [1] is 1 to 10 µM; on 11b-HSD1 [2], more than 10 µM.
Take `Cc1ccccc1CC1CCN(CCCc2ccccc2)C1=O` (stereo not shown) [Compound 110]: the IC50 at 11b-HSD1 [1] and at 11b-HSD1 [2] was 1 to 10 µM throughout.
As to `COc1ccc(C[C@H]2CCN([C@@H](C)c3ccccc3)C2=O)c(Cl)c1OC` [Compound 120], the IC50 at 11b-HSD1 [1] was less than 1 µM; on 11b-HSD1 [2], 1 to 10 µM.
Regarding `Cc1ccccc1CC1CCCN(CCc2ccccc2)C1=O` (stereo not shown) [Compound 87], the IC50 is 1 to 10 µM at 11b-HSD1 [1] and more than 10 µM at 11b-HSD1 [2].
For `C[C@H](C[C@@H]1CCN([C@@H](C)c2ccccc2)C1=O)c1ccccc1` [Compound 136], the IC50 on 11b-HSD1 [1] and at 11b-HSD1 [2] was 1 to 10 µM each time.
As to `O=C1[C@@H](Cc2c(Cl)cccc2Cl)CCN1[C@H](CO)c1ccccc1` [Compound 104], the IC50 is 1 to 10 µM on 11b-HSD1 [1] and more than 10 µM on 11b-HSD1 [2].
The matching figures for `O=C1C(Cc2ccccc2)CCN1CCc1ccccc1` (stereo not shown) [Compound 34]: 1 to 10 µM and more than 10 µM.
As to `Cc1cccc(C[C@H]2CCN([C@H](C)c3ccccc3)C2=O)c1` [Compound 68], the IC50 on 11b-HSD1 [1] is 1 to 10 µM; on 11b-HSD1 [2], more than 10 µM.
The matching figures for `C[C@@H](c1ccccc1)N1CC[C@H](Cc2cccc(Cl)c2)C1=O` [Compound 17]: 1 to 10 µM and 1 to 10 µM.
For `O=C1C(Cc2c(Cl)cccc2Cl)CCN1[C@H](Cc1ccccc1)c1ccccc1` (single isomer, unassigned) [Compound 103], the IC50 at 11b-HSD1 [1] and at 11b-HSD1 [2] was more than 10 µM throughout.
Take `COc1cccc(CC2CCN(Cc3ccccc3)C2=O)c1` (stereo not shown) [Compound 48]: the IC50 was 1 to 10 µM on 11b-HSD1 [1] and more than 10 µM at 11b-HSD1 [2].
The matching figures for `N#Cc1ccccc1CC1CCN(CCc2ccccc2)C1=O` (stereo not shown) [Compound 23]: less than 1 µM and 1 to 10 µM.
Regarding `COc1ccc(CCN2CCC(Cc3c(Cl)cccc3Cl)C2=O)cc1` (stereo not shown) [Compound 92], the IC50 on 11b-HSD1 [1] is 1 to 10 µM; on 11b-HSD1 [2] it was less than 1 µM.
For `O=C1[C@@H](Cc2c(Cl)cccc2Cl)CCN1[C@@H](CO)c1ccccc1` [Compound 106], in that order: more than 10 µM and 1 to 10 µM.
The matching figures for `CCCC1(Cc2ccccc2C)CCN([C@@H](C)c2ccccc2)C1=O` (mixture of isomers) [Compound 146]: more than 10 µM and more than 10 µM.
The matching figures for `Cc1ccccc1C[C@H]1CCN([C@H](C)c2ccccc2)C1=O` [Compound 67]: less than 1 µM and 1 to 10 µM.
Take `C[C@@H](c1ccccc1)N1CC[C@H]([C@@](C)(O)c2ccc(CCBr)cc2)C1=O` [Compound 117]: the IC50 at 11b-HSD1 [1] and at 11b-HSD1 [2] was less than 1 µM throughout.
As to `COc1cc(CC2(Cc3ccc(OCc4ccccc4)c(OC)c3)CCN(CCc3ccccc3)C2=O)ccc1OCc1ccccc1` [Compound 164], the IC50 on 11b-HSD1 [1] and on 11b-HSD1 [2] was more than 10 µM in each case.
In the case of `COc1cccc(C[C@@H]2CCN([C@H](C)c3ccccc3)C2=O)c1` [Compound 52], the figures for the IC50 at 11b-HSD1 [1] and at 11b-HSD1 [2] were 1 to 10 µM and more than 10 µM, respectively.
The matching figures for `COc1cc(C[C@@H]2CCN([C@@H](C)c3ccccc3)C2=O)ccc1OCc1ccccc1` [Compound 121]: more than 10 µM and more than 10 µM.
As to `Cc1ccccc1CC[C@@H]1CCN([C@@H](C)c2ccccc2)C1=O` [Compound 127], the IC50 on 11b-HSD1 [1] and at 11b-HSD1 [2] was 1 to 10 µM each time.
With `Cc1cccc(C)c1C[C@@H]1CCN([C@@H](C)c2ccccc2)C1=O` [Compound 76], the “[C2] HSD1 cellular 3T3-L1 Score” value at 11b-HSD1 [1] was 2 (Score 2=pIC50 value in the range of 5 to 6). For the same compound, the “[C1] HSD1-prot Reduct Score” value at 11b-HSD1 [2] was 3 (Score 3=pIC50 value>6).
As for `C[C@@H](c1ccccc1)N1CCC(CCc2cccc3ccccc23)(CCc2cccc3ccccc23)C1=O` [Compound 116], the IC50 at 11b-HSD1 [1] and at 11b-HSD1 [2] was more than 10 µM in each case.
Consider `O=C1C(Cc2ccccc2)CCN1Cc1ccccc1` (stereo not shown) [Compound 61], for which the results for the IC50 at 11b-HSD1 [1] and on 11b-HSD1 [2] were 1 to 10 µM and more than 10 µM, respectively.
Turning to `CC[C@@H](c1ccccc1)N1CC[C@H](Cc2c(Cl)cccc2Cl)C1=O` [Compound 94], the IC50 was less than 1 µM on 11b-HSD1 [1] and more than 10 µM on 11b-HSD1 [2].
For `C[C@@H](c1ccccc1)N1CC[C@H](CCc2c(F)cccc2Cl)C1=O` [Compound 129], in that order: 1 to 10 µM and 1 to 10 µM.
The matching figures for `CC[C@@H](C[C@H]1CCN([C@@H](C)c2ccccc2)C1=O)c1ccccc1` [Compound 141]: more than 10 µM and less than 1 µM.
With `C[C@H](c1ccccc1)N1CC[C@@H](Cc2ccccc2)C1=O` [Compound 37], the IC50 is 1 to 10 µM at 11b-HSD1 [1] and more than 10 µM on 11b-HSD1 [2].
For `C[C@H](c1ccccc1)N1CC[C@@H](Cc2cccc(Cl)c2)C1=O` [Compound 46], in that order: more than 10 µM and more than 10 µM.
For `C[C@H](C[C@H]1CCN([C@@H](C)c2ccccc2)C1=O)c1ccccc1` [Compound 137], in that order: less than 1 µM and less than 1 µM.
Regarding `C[C@@H](c1ccccc1)N1CC[C@@H]([C@](C)(O)c2ccc(CCBr)cc2)C1=O` [Compound 118], the results for the IC50 at 11b-HSD1 [1] and at 11b-HSD1 [2] were 1 to 10 µM and more than 10 µM, respectively.
The matching figures for `COc1cc(CC2CCN(CCc3ccccc3)C2=O)ccc1OCc1ccccc1` (stereo not shown) [Compound 109]: 1 to 10 µM and more than 10 µM.
The matching figures for `COc1cccc(C[C@H]2CCN([C@@H](C)c3ccccc3)C2=O)c1` [Compound 19]: less than 1 µM and 1 to 10 µM.
In the case of `Cc1ccc(C[C@H]2CCN([C@H](C)c3ccccc3)C2=O)cc1` [Compound 26], the results for the IC50 at 11b-HSD1 [1] and at 11b-HSD1 [2] were 1 to 10 µM and more than 10 µM, respectively.
On to `COc1ccc(CC[C@H]2CCN([C@@H](C)c3ccccc3)C2=O)cc1` [Compound 133], for which the IC50 on 11b-HSD1 [1] was 1 to 10 µM; on 11b-HSD1 [2] it was more than 10 µM.
For `COc1ccccc1CC[C@@H]1CCN([C@@H](C)c2ccccc2)C1=O` [Compound 123], in that order: 1 to 10 µM and 1 to 10 µM.
